Reference: US20230157952A1, “METHOD FOR IMPROVING THE STABILITY OF A PHARMACEUTICAL COMPOSITION COMPRISING A HIGH PENETRATION DRUG, AND THE PHARMACEUTICAL COMPOSITION OBTAINED THEREFROM” (Techfields Inc., priority 2020, published 2023)

Assay: Effect of pH value on the stability of the solution (purity)
Type: physicochemical
Conditions: 25° C.
[1] = day 0, pH 1.0, 7% in 25% ethanol
[2] = day 0, pH 2.0, 7% in 25% ethanol
[3] = day 0, pH 3.0, 7% in 25% ethanol
[4] = day 0, pH 3.7, 7% in 25% ethanol
[5] = day 0, pH 4.0, 7% in 25% ethanol
[6] = day 0, pH 4.3, 7% in 25% ethanol
[7] = day 0, pH 4.6, 7% in 25% ethanol
[8] = day 0, pH 5.0, 7% in 25% ethanol
[9] = day 0, pH 6.0, 7% in 25% ethanol
[10] = day 0, pH 7.0, 7% in 25% ethanol
[11] = day 0, pH 8.0, 7% in 25% ethanol
[12] = day 28, pH 1.0, 7% in 25% ethanol
[13] = day 28, pH 2.0, 7% in 25% ethanol
[14] = day 28, pH 3.0, 7% in 25% ethanol
[15] = day 28, pH 3.7, 7% in 25% ethanol
[16] = day 28, pH 4.0, 7% in 25% ethanol
[17] = day 28, pH 4.3, 7% in 25% ethanol
[18] = day 28, pH 4.6, 7% in 25% ethanol
[19] = day 28, pH 5.0, 7% in 25% ethanol
[20] = day 28, pH 6.0, 7% in 25% ethanol
[21] = day 28, pH 7.0, 7% in 25% ethanol
[22] = day 28, pH 8.0, 7% in 25% ethanol

Purity(%) from day 0-28 [1] [%] | Purity(%) from day 0-28 [2] [%] | Purity(%) from day 0-28 [3] [%] | Purity(%) from day 0-28 [4] [%] | Purity(%) from day 0-28 [5] [%] | Purity(%) from day 0-28 [6] [%] | Purity(%) from day 0-28 [7] [%] | Purity(%) from day 0-28 [8] [%] | Purity(%) from day 0-28 [9] [%] | Purity(%) from day 0-28 [10] [%] | Purity(%) from day 0-28 [11] [%] | Purity(%) from day 0-28 [12] [%] | Purity(%) from day 0-28 [13] [%] | Purity(%) from day 0-28 [14] [%] | Purity(%) from day 0-28 [15] [%] | Purity(%) from day 0-28 [16] [%] | Purity(%) from day 0-28 [17] [%] | Purity(%) from day 0-28 [18] [%] | Purity(%) from day 0-28 [19] [%] | Purity(%) from day 0-28 [20] [%] | Compound | further results
97.6 ± 0.4 | 98.0 ± 0.3 | 98.1 ± 0.2 | 98.3 ± 0.3 | 98.4 ± 0.3 | 98.4 ± 0.2 | 98.3 ± 0.2 | 98.3 ± 0.4 | 98.2 ± 0.3 | 97.9 ± 0.3 | 97.6 ± 0.5 | 68.4 ± 0.4 | 87.3 ± 0.3 | 87.3 ± 0.3 | 95.0 ± 0.2 | 96.1 ± 0.3 | 96.3 ± 0.3 | 96.3 ± 0.2 | 89.7 ± 0.3 | 87.3 ± 0.3 | CC(C)Cc1ccc([C@@H](C)C(=O)OCCC2CCNCC2)cc1.Cl (racemic) [C-8, 4-piperidineethyl (R,S)-2-(p-isobutylphenyl)propionate•HCl salt] | Purity(%) from day 0-28 [21]: 48.3 ± 0.4%; Purity(%) from day 0-28 [22]: 34.2 ± 0.3%
98.0 ± 0.3 | 98.2 ± 0.4 | 98.5 ± 0.3 | 98.6 ± 0.4 | 98.6 ± 0.3 | 98.7 ± 0.2 | 98.6 ± 0.3 | 98.5 ± 0.4 | 98.4 ± 0.5 | 98.1 ± 0.5 | 97.9 ± 0.5 | 68.3 ± 0.2 | 87.7 ± 0.3 | 87.7 ± 0.2 | 95.5 ± 0.3 | 96.3 ± 0.3 | 96.4 ± 0.2 | 96.4 ± 0.3 | 88.6 ± 0.3 | 89.0 ± 0.4 | CC(C)Cc1ccc([C@@H](C)C(=O)OCCN2CCCC2)cc1.Cl (racemic) [C-9, 1-pyrrolidineethyl (R,S)-2-(p-isobutylphenyl)propionate•HCl salt] | Purity(%) from day 0-28 [21]: 48.1 ± 0.3%; Purity(%) from day 0-28 [22]: 34.4 ± 0.4%
97.6 ± 0.3 | 97.9 ± 0.4 | 98.0 ± 0.3 | 98.2 ± 0.3 | 98.2 ± 0.2 | 98.3 ± 0.3 | 98.2 ± 0.4 | 98.2 ± 0.3 | 98.1 ± 0.3 | 97.8 ± 0.3 | 97.5 ± 0.5 | 68.1 ± 0.3 | 87.0 ± 0.3 | 87.0 ± 0.2 | 95.1 ± 0.3 | 95.8 ± 0.3 | 95.9 ± 0.2 | 95.8 ± 0.3 | 88.5 ± 0.4 | 87.9 ± 0.3 | CC(C)Cc1ccc(C(C)C(=O)OCCN2CCCCC2)cc1.Cl (racemic) [C-10, 1-piperidineethyl (R,S)-2-(p-isobutylphenyl)propionate•HCl salt] | Purity(%) from day 0-28 [21]: 47.8 ± 0.3%; Purity(%) from day 0-28 [22]: 34.1 ± 0.4%
